In ChEMBL document CHEMBL1201862, “PubChem BioAssay data set” (2004):
Calls of active or inactive are those of the source.

Assays:
Protein RecA = molecular target: T1, Protein RecA (Mycobacterium tuberculosis, UniProt P9WHJ3); assay: Fluorescence Cell-Free Homogeneous Dose Retest to Identify Inhibitors of RecA-Intein Splicing Activity. [Related pubchem assays (depositor defined):AID2097, AID2223, AID489010, AID492950]; type: functional
T1 sequence (P9WHJ3 whole entry): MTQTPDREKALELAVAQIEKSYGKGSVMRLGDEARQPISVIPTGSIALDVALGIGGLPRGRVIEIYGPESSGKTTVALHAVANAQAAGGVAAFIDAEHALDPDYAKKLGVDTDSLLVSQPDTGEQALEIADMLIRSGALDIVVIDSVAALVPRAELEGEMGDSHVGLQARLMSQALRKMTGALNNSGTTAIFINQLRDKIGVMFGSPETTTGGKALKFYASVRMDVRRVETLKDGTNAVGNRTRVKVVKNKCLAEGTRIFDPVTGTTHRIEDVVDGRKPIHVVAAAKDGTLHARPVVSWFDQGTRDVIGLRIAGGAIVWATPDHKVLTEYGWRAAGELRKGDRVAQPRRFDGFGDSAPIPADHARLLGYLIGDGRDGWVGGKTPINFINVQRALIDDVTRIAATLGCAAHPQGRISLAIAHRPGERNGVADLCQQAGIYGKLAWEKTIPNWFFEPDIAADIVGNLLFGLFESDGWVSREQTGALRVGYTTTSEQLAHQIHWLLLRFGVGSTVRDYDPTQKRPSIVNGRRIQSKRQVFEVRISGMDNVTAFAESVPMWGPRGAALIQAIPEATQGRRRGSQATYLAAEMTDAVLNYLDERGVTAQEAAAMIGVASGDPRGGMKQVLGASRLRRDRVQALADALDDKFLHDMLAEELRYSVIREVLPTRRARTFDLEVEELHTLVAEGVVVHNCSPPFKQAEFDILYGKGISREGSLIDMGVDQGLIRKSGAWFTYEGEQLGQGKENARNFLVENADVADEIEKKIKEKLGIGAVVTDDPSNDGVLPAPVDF

[1] = molecular target: T2, Replicative DNA helicase DnaB (Mycobacterium tuberculosis, UniProt P9WMR3); assay: DnaB intein splicing inhibitors, dose response, biochemical, cell-free fluorescence (AID 449749); type: functional
T2 sequence (P9WMR3 whole entry): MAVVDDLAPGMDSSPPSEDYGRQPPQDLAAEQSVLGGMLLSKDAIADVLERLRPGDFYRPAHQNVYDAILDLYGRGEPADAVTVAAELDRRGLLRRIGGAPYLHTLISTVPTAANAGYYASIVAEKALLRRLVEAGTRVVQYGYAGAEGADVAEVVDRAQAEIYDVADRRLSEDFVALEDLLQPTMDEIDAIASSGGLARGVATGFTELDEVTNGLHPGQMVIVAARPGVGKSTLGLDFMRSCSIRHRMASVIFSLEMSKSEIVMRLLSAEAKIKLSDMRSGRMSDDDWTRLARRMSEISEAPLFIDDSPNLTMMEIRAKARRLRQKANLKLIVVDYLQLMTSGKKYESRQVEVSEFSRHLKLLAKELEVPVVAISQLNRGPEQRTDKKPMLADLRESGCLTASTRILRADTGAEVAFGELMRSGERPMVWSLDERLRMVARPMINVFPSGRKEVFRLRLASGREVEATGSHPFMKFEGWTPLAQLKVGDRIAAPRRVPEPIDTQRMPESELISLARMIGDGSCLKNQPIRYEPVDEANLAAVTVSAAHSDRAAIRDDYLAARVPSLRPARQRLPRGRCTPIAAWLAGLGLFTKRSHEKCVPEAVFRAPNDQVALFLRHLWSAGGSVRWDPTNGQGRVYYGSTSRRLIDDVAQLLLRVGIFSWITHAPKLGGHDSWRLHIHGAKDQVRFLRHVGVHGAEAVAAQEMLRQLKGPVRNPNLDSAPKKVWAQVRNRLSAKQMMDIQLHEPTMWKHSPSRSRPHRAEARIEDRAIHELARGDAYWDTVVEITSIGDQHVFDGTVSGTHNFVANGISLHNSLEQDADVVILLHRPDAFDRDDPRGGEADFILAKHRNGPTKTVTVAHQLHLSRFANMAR

[2] = molecular target: T3, Histone-lysine N-methyltransferase NSD2 (Homo sapiens, UniProt O96028); type: biochemical
T3 sequence (O96028 whole entry): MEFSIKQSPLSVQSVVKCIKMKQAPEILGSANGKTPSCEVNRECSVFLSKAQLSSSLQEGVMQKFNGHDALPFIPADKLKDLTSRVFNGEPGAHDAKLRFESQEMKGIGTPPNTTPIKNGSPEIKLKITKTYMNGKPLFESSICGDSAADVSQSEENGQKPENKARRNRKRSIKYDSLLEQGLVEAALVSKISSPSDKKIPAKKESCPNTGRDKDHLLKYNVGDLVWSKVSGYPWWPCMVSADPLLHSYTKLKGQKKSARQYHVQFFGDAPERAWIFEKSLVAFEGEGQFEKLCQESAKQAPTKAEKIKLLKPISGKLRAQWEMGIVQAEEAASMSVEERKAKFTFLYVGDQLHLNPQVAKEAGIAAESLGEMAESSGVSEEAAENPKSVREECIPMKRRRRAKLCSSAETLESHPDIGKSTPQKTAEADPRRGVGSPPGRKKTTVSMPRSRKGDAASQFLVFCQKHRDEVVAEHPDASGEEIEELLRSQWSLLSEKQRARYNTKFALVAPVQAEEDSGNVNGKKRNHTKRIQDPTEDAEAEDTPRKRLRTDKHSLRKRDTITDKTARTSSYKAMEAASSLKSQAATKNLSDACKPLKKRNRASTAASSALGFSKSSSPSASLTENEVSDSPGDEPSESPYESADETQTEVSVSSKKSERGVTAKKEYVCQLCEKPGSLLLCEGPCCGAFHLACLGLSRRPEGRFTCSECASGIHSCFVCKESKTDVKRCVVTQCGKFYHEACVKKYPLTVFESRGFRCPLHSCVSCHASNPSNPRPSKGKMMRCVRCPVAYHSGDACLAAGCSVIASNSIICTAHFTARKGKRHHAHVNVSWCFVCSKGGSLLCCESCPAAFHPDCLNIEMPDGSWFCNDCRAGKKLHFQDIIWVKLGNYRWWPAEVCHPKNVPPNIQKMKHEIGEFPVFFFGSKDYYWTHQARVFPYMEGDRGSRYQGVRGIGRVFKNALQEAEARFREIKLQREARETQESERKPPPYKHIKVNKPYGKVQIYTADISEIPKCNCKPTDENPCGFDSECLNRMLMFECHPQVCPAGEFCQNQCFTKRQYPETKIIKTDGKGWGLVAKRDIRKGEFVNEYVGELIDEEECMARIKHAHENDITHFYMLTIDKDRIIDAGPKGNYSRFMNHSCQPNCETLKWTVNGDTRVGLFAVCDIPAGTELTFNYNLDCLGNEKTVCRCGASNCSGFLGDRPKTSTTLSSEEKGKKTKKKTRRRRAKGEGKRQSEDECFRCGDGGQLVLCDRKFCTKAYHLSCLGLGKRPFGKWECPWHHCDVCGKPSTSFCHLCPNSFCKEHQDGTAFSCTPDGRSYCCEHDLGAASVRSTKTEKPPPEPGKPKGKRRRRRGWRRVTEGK

Paired box protein Pax-8 = Paired box protein Pax-8 (Homo sapiens, UniProt Q06710); assay: inhibitors of PAX8-driven TPO luciferase reporter, dose response, RMG-I cells, cherry-pick (AID 687027); type: functional, cell-based;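 also: luciferase reporter driven by Pax8 target thyroperoxidase promoter measured by SteadyGlo luminescence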
Sequence of Paired box protein Pax-8 (Q06710 whole entry): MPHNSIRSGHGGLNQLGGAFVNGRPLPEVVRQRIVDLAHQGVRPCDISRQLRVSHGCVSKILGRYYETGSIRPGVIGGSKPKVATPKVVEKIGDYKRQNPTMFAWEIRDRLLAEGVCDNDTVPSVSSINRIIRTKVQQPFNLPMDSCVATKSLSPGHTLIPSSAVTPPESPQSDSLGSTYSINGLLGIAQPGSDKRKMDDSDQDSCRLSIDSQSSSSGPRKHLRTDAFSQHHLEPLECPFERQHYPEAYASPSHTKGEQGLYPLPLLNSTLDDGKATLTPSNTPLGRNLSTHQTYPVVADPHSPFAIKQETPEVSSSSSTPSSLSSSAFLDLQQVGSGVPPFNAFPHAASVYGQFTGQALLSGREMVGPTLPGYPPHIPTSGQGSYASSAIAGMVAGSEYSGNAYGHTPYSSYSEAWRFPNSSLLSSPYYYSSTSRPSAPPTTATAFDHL

[3] = cytotoxicity in OVCAR8 ovarian cancer cells, dose response, PAX8 project, cell-based, plate reader, dry powder samples (AID 743197); type: functional; details: OVCAR-8
[4] = IGROV1 ovarian cancer cell cytotoxicity, dose response, PAX8 inhibitor project, plate reader, dry powder samples (AID 743043); type: functional, cell-based; details: IGROV-1
[5] = NIH:OVCAR-3 ovarian cancer cell cytotoxicity, dose response, PAX8 inhibitor project, plate reader, dry powder samples (AID 743044); type: functional, cell-based
[6] = molecular target: T4, Short transient receptor potential channel 4 (Mus musculus, UniProt Q9QUQ5); assay: mouse TRPC4 channel inhibitors, dose response, cell-based, HEK293 TRPC4/mu-opioid, Fluo-4 calcium (AID 434942); type: functional;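 also: potency of inhibitors blocking the TRPC4 calcium response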
T4 sequence (Q9QUQ5 whole entry): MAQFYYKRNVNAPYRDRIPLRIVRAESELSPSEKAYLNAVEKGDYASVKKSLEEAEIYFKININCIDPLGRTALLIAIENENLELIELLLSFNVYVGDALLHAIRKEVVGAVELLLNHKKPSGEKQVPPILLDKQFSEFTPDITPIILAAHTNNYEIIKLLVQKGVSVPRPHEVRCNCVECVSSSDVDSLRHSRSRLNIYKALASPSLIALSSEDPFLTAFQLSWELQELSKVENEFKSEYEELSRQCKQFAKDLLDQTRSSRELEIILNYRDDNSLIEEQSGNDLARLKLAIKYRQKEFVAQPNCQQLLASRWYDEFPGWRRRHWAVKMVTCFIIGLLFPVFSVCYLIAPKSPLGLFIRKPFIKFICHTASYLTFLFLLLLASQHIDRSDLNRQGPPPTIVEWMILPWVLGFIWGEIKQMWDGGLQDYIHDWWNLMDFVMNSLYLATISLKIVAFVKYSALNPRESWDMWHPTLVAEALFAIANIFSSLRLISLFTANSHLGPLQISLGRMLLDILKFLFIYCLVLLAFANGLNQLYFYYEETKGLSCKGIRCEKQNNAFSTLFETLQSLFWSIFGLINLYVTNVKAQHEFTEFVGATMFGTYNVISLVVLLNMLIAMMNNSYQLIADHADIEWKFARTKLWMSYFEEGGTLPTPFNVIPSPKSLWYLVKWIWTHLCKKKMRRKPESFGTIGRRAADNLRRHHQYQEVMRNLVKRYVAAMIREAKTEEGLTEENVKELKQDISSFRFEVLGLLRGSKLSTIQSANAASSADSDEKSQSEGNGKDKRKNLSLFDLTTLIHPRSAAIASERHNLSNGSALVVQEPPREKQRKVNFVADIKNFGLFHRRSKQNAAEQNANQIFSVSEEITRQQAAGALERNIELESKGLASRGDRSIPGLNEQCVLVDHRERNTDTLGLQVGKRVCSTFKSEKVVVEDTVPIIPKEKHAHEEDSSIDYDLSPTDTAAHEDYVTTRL

Streptococcus = assay: Group A Streptococcus viability loss, dose response, counter-screen for streptokinase expression inhibitor project, luminescence, BacTiterGlo (AID 1915); type: functional, organism-based;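 also: potency for reduction of bacterial viability or growth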
[7] = system: Streptococcus sp. 'group A'; assay: growth inhibition of control SK(-) GAS strain, dose response, counter-screen for streptokinase expression inhibitor project, luminescence, kanamycin, BacTiterGlo, confirmation (AID 1900); type: functional, organism-based
Streptokinase A = molecular target: T5, Streptokinase A (Streptococcus pyogenes serotype M1, UniProt P10520); assay: S. pyogenes streptokinase expression inhibitors, potency, dose response, plasminogen activation absorbance, OD405 (AID 1914); type: functional, Streptococcus pyogenes M1 GAS;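 also: secreted streptokinase activity via plasminogen activation per viability signal from cell pellet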
T5 sequence (P10520 whole entry): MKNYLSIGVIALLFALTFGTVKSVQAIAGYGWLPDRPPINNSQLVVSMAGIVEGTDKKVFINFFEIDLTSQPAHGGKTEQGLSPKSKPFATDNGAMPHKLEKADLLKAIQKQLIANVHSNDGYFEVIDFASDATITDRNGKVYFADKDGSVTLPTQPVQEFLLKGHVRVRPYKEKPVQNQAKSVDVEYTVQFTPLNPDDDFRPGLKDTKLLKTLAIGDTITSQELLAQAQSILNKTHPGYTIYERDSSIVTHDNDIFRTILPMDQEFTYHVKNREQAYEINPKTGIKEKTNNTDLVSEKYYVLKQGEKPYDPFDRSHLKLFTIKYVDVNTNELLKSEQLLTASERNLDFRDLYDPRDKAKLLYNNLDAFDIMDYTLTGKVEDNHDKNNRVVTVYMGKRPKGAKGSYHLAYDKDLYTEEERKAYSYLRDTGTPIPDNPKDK

Nonstructural protein 1 = Nonstructural protein 1 (Influenza A virus, UniProt Q194T2); type: functional, Influenza A virus (A/California/07/2009(H1N1))
Sequence of Nonstructural protein 1 (Q194T2 whole entry): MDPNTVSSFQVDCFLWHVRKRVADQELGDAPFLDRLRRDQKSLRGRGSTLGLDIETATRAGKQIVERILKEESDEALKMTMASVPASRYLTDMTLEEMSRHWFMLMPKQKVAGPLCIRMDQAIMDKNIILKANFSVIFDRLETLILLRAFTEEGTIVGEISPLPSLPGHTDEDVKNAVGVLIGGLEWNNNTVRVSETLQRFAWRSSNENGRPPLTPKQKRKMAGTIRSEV

[8] = THP-1 cell cytotoxicity, dose response, cytotoxicity control for non-replicating M. tuberculosis project (AID 489025); type: functional

SMILES | AC50 (Paired box protein Pax-8) | AC50 [3] | AC50 [4] | EC50 [6] | other results
Cc1[nH]n(-c2ccccc2)c(=O)c1C(C[N+](=O)[O-])c1ccc(Cl)cc1 (stereo not drawn) | – | – | – | – | EC50 (Protein RecA): 3.22 µM (active); AC50 [1]: 5.32 µM (active); AC50 [2]: 9.52 µM (active)
Cc1cccc(S(=O)(=O)N2CC[C@@H]3[C@H](CO)N(C)c4ccc(C#Cc5ccc(F)cc5)cc4[C@@H]32)c1 | 8.27 µM (active) | > 60 µM (inactive) | 41.8 µM (active) | – | –
C[C@@H]1CN([C@@H](C)CO)C(=O)c2cc(NC(=O)c3ccccc3)ccc2O[C@@H](C)CCCCO[C@@H]1CN(C)Cc1ccc(C(F)(F)F)cc1 | 9.74 µM (active) | > 70 µM (inactive) | – | – | AC50 [5]: 30.4 µM (active)
Cc1ccc(Cn2c(Cc3ccccc3)nc3ccccc32)cc1 | – | – | – | 0.668 µM (active) | EC50 (Streptococcus): 61.3 µM (active); EC50 [7]: 12.5 µM (active); EC50 (Streptokinase A): > 150 µM (not active)
CC(=O)Oc1ccc(/C=C(\NC(=O)c2ccco2)C(=O)NCc2ccccc2)cc1 | – | – | – | 1.68 µM (active) | –
O=C(N/N=C/c1ccccc1O)c1cc[n+]([O-])cc1 | – | – | – | – | IC50 (Nonstructural protein 1): 4.49 µM (active)
C[C@H](CO)N1C[C@H](C)[C@H](CN(C)Cc2ccc(Cl)c(Cl)c2)OCCCC[C@H](C)Oc2ccc(NC(=O)Nc3ccc(C(F)(F)F)cc3)cc2C1=O | 5.3 µM (active) | 63 µM (active) | 43.1 µM (active) | – | –
C[C@@H]1CCCCO[C@@H](CN(C)C(=O)Nc2cccc3ccccc23)[C@H](C)CN([C@H](C)CO)C(=O)c2cc(NS(=O)(=O)c3ccc(F)cc3)ccc2O1 | 5.4 µM (active) | > 70 µM (inactive) | 45.5 µM (active) | – | –
COc1cc2c(cc1OC)C(C)N(CCc1ccc(Cl)cc1)CC2 (stereo not drawn) | – | – | – | 0.105 µM (active) | –
Cc1nn(C)cc1/C=N/NC(=O)c1sc2ccccc2c1Cl | – | – | – | – | CC50 [8]: > 40 µM (active)
